Patent publication US20240076347A1, “METHODS FOR PREVENTING FUNGAL INFECTIONS” (Cidara Therapeutics, Inc., priority 2016, published 2024)
Numbered stars: 1 amine (or outer) side, 2 acyl side, 3 side chain; on linkers, the order of the positions; unused ones are H or OH. Bridge positions count the residues as written; N and C are the ends. Square brackets hold non-standard residues; d marks the D form. Peptide text beside a SMILES is read from it. * marks the point of attachment. ξ: configuration not given here. Orn(4R-OH,5R-OCH2CH2NMe3+) = C[N+](C)(C)CCO[C@@H](N[*:3])[C@H](O)C[C@H](N[*:1])C(=O)[*:2]; pTerphenylCO(4''-OnC5H11) = CCCCCOc1ccc(-c2ccc(-c3ccc(C(=O)*)cc3)cc2)cc1; hTyr(3S-OH,4S-OH) = N[C@H](C(=O)O)[C@H](O)[C@@H](O)c1ccc(O)cc1; X1 = C[C@H]1CN([*:1])C(C(=O)[*:2])C1O; Hyp = O=C(O)[C@@H]1C[C@@H](O)CN1; ξT = CC(O)C(N)C(=O)O

How the values were obtained:
Candida auris = experiment: Murine model of disseminated candidiasis (immunosuppressed CD-1 mice), treatment; format: in vivo; conditions: 20 mg/kg IP
Description: Female 6-8 week old CD-1 mice were immunosuppressed with cyclophosphamide (200 mg/kg) 3 days prior to infection and 150 mg/kg 1 day post-infection. On the day of infection, mice were inoculated with 3×10^7 C. auris blastospores via the lateral tail vein. Mice were randomized into 5 groups (n=5 for colony forming units (CFU) and n=10 for survival): CD101 20 mg/kg administered by intraperitoneal (IP) injection, fluconazole 20 mg/kg administered per os (PO), amphotericin B 0.3 mg/kg IP, and a vehicle control. Treatments were administered 2 hours post-infection (Day 1) and again on Day 4 of the study for a total of 2 doses. Mice were monitored daily and a survival curve was generated. CFU groups were sacrificed on Day 8 of the study. One kidney was removed from each mouse, homogenized, plated on potato dextrose agar (PDA), and incubated at 35° C. for 2 days to determine CFU. The remaining survival mice were monitored until the end of the study (Day 14).

[1] = Pharmacokinetic profile in mice after subcutaneous dose; format: in vivo; conditions: mouse, plasma, 10 mg/kg SC

CCCCCOc1ccc(-c2ccc(-c3ccc(C(=O)N[C@H]4C[C@@H](O)[C@@H](OCC[N+](C)(C)C)NC(=O)C5C(O)[C@@H](C)CN5C(=O)[C@H]([C@@H](C)O)NC(=O)[C@H]([C@H](O)[C@@H](O)c5ccc(O)cc5)NC(=O)[C@@H]5C[C@@H](O)CN5C(=O)C(C(C)O)NC4=O)cc3)cc2)cc1 (stereo partly drawn) [CD101] ({pTerphenylCO(4''-OnC5H11)}-[Orn(4R-OH,5R-OCH2CH2NMe3+)][ξT][Hyp][hTyr(3S-OH,4S-OH)]T[X1]; lactam 1-C)
average reduction in kidney CFU (Candida auris; 2 doses (Day 1, Day 4), Day 8, compared to fluconazole, amphotericin B and vehicle groups): 3 log
percent survival at the end of the study (Candida auris; 2 doses, Day 14): 80%
half-life [1]: ~25 h
bioavailability ([1]; read-out: absolute bioavailability): ~50%
